Reference: article PMC4015405, “Specificity of the Receptor for the Major Sex Pheromone Component in Heliothis virescens” (Journal of Insect Science, 2013)

Biological target: T1, Or67d (Or67d^+[1]) (Drosophila melanogaster, UniProt Q9VT92)
T1 construct: native full-length receptor in trichoid T1 sensilla of living flies; with Odorant receptor coreceptor
T1 sequence (Q9VT92 1-391): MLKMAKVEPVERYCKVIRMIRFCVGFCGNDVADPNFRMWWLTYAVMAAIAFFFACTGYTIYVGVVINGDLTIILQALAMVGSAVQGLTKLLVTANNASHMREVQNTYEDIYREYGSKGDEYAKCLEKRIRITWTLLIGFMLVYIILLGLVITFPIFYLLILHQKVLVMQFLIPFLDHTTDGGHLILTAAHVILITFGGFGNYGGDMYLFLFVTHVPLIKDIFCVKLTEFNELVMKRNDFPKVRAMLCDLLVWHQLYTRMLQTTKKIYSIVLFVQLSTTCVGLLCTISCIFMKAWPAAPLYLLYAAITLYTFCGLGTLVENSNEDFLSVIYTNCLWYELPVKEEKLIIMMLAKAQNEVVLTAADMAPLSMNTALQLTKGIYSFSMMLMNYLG
T1 sequence (Q9VNB5 1-486 partner): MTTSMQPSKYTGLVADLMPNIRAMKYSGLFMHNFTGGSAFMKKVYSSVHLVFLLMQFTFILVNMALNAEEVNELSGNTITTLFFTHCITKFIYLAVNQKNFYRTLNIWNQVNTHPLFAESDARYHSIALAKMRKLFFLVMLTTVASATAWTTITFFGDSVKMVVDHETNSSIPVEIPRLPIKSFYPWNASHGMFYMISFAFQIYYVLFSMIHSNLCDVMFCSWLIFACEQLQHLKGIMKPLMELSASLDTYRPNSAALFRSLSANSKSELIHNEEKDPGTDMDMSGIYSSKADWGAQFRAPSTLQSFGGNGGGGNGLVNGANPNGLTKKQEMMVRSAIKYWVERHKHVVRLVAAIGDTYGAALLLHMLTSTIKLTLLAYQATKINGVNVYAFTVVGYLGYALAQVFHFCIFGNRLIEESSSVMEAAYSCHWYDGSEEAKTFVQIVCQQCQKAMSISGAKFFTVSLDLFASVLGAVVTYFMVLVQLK
Experiment: single sensillum recording, Drosophila T1 trichoid sensilla
Format: cell-based
Details: 10 μg source dose on filter paper; agonist; n = 7

`CCCC/C=C\CCCCCCCCCCOC(C)=O` [Z11-16:OAc, (Z)-11-hexadecenyl acetate] showed a spikes/sec of 87 ± 15.87 spikes/sec.
